Source: patent US20230293526A1, “METHOD FOR TREATING CANCER WITH A REVERSE TRANSCRIPTASE INHIBITOR” (PrimeFour Therapeutics, Inc., priority 2020, published 2023)

Key:
Experiment in all cases: Cell proliferation Ex.3
Type in all cases: cell-based
[1] = system: GRANTA-519; settings: Homo sapiens
Protocol: (§1) A dose response relationship on cell proliferation was assessed for Compound 13 on 140 tumor cell lines. […] Cells were cultured in the appropriate media. For the assays, cells were seeded in white cell culture-treated flat and clear bottom multiwell plates and incubated at 37° C. overnight before compound was added. […] on the medium, cell plates were equilibrated to room temperature for one hour, CellTiterGlo reagent (Promega) was added and luminescence was measured approximately an hour later using a luminometer. Raw data were converted into percent cell viability relative to the high and low control, which were set to 10000 and 000, respectively.

[2] = system: DU145; settings: Homo sapiens, DU-145
Protocol: as §1

[3] = system: DLD1; settings: Homo sapiens, DLD-1
Protocol: as §1

[4] = system: NCIH460; settings: Homo sapiens, NCI-H460
Protocol: as §1

[5] = system: PANC1005; settings: Homo sapiens
Protocol: as §1

[6] = system: MG63; settings: Homo sapiens, MG-63
Protocol: as §1

[7] = system: HeLa; settings: Homo sapiens
Protocol: as §1

[8] = system: SKLMS1; settings: Homo sapiens, SK-LMS-1
Protocol: as §1

[9] = system: A204; settings: Homo sapiens
Protocol: as §1

[10] = system: UO31; settings: Homo sapiens, UO-31
Protocol: as §1

[11] = system: EJ28; settings: Homo sapiens, EJ-28
Protocol: as §1

[12] = system: JIMT1; settings: Homo sapiens, JIMT-1
Protocol: as §1

[13] = system: MIAPACA2; settings: Homo sapiens, MIA PaCa-2
Protocol: as §1

[14] = system: MDAMB435; settings: Homo sapiens, MDA-MB-435
Protocol: as §1

[15] = system: JAR
Protocol: as §1

[16] = system: J82; settings: Homo sapiens
Protocol: as §1

[17] = system: ACHN; settings: Homo sapiens
Protocol: as §1

[18] = system: WSU-NHL; settings: Homo sapiens
Protocol: as §1

[19] = system: MV4-11; settings: Homo sapiens
Protocol: as §1

[20] = system: C33A; settings: Homo sapiens, C-33-A
Protocol: as §1

[21] = system: LOVO; settings: Homo sapiens
Protocol: as §1

[22] = system: CALU6; settings: Homo sapiens, Calu-6
Protocol: as §1

[23] = system: NCI-H23; settings: Homo sapiens
Protocol: as §1

[24] = system: THP-1; settings: Homo sapiens
Protocol: as §1

[25] = system: KASUMI
Protocol: as §1

[26] = system: U87MG; settings: Homo sapiens, U-87 MG
Protocol: as §1

[27] = system: HEK293; settings: Homo sapiens
Protocol: as §1

IC50 ([2]; DU145, 72 h): > 10 µM
IC50 ([2]; DU145, 120 h): > 10 µM
IC50 ([2]; DU145, 168 h): > 10 µM
IC50 ([3]; DLD1, 72 h): > 10 µM
IC50 ([3]; DLD1, 120 h): > 10 µM
IC50 ([3]; DLD1, 168 h): > 10 µM
IC50 ([5]; Panc1005, 72 h): > 10 µM
IC50 ([5]; Panc1005, 120 h): > 10 µM
IC50 ([5]; Panc1005, 168 h): > 10 µM
IC50 ([7]; 72 h): > 10 µM
IC50 ([7]; 120 h): > 10 µM
IC50 ([7]; 168 h): > 10 µM
IC50 ([8]; SKLMS1, 72 h): > 10 µM
IC50 ([8]; SKLMS1, 120 h): > 10 µM
IC50 ([8]; SKLMS1, 168 h): > 10 µM
IC50 ([13]; MIAPACA2, 72 h): > 10 µM
IC50 ([13]; MIAPACA2, 120 h): > 10 µM
IC50 ([13]; MIAPACA2, 168 h): > 10 µM
IC50 ([14]; MDAMB435, 72 h): > 10 µM
IC50 ([14]; MDAMB435, 120 h): > 10 µM
IC50 ([14]; MDAMB435, 168 h): > 10 µM
IC50 ([17]; 72 h): > 10 µM
IC50 ([17]; 120 h): 0.91 µM
IC50 ([17]; 168 h): 0.94 µM
IC50 ([19]; MV4-11, 72 h): 2.48 µM
IC50 ([19]; MV4-11, 120 h): 0.251 µM
IC50 ([19]; MV4-11, 168 h): 1.72 µM
IC50 ([21]; 72 h): > 10 µM
IC50 ([21]; 120 h): 3.28 µM
IC50 ([21]; 168 h): 2.06 µM
IC50 ([22]; CALU6, 72 h): > 10 µM
IC50 ([22]; CALU6, 120 h): > 10 µM
IC50 ([22]; CALU6, 168 h): > 10 µM
IC50 ([23]; NCI-H23, 72 h): > 10 µM
IC50 ([23]; NCI-H23, 120 h): > 10 µM
IC50 ([23]; NCI-H23, 168 h): > 10 µM
IC50 ([24]; THP-1, 72 h): > 10 µM
IC50 ([24]; THP-1, 120 h): > 10 µM
IC50 ([24]; THP-1, 168 h): > 10 µM
IC50 ([26]; 72 h): > 10 µM
IC50 ([26]; 120 h): > 10 µM
IC50 ([26]; 168 h): > 10 µM
SMILES: C#C[C@]1(CO)O[C@@H](n2cc(F)c(N)nc2=O)C[C@@H]1O [compound 9]
IC50 ([1]; Granta-519, 72 h): 4.98 µM
IC50 ([1]; Granta-519, 120 h): 0.24 µM
IC50 ([1]; Granta-519, 168 h): 0.35 µM
IC50 ([4]; NCIH460, 72 h): > 10 µM
IC50 ([4]; NCIH460, 120 h): > 10 µM
IC50 ([4]; NCIH460, 168 h): > 10 µM
IC50 ([6]; MG63, 72 h): > 10 µM
IC50 ([6]; MG63, 120 h): > 10 µM
IC50 ([6]; MG63, 168 h): > 10 µM
IC50 ([9]; A204, 72 h): > 10 µM
IC50 ([9]; A204, 120 h): > 10 µM
IC50 ([9]; A204, 168 h): > 10 µM
IC50 ([10]; UO31, 72 h): > 10 µM
IC50 ([10]; UO31, 120 h): > 10 µM
IC50 ([10]; UO31, 168 h): > 10 µM
IC50 ([11]; EJ28, 72 h): > 10 µM
IC50 ([11]; EJ28, 120 h): > 10 µM
IC50 ([11]; EJ28, 168 h): > 10 µM
IC50 ([12]; JIMT1, 72 h): > 10 µM
IC50 ([12]; JIMT1, 120 h): > 10 µM
IC50 ([12]; JIMT1, 168 h): > 10 µM
IC50 ([15]; 72 h): > 10 µM
IC50 ([15]; 120 h): > 10 µM
IC50 ([15]; 168 h): > 10 µM
IC50 ([16]; J82, 72 h): > 10 µM
IC50 ([16]; J82, 120 h): > 10 µM
IC50 ([16]; J82, 168 h): > 10 µM
IC50 ([18]; 72 h): 3.01 µM
IC50 ([18]; 120 h): 0.42 µM
IC50 ([18]; 168 h): 0.87 µM
IC50 ([20]; 72 h): > 10 µM
IC50 ([20]; 120 h): 2.93 µM
IC50 ([20]; 168 h): 3.07 µM
IC50 ([25]; 72 h): > 10 µM
IC50 ([25]; 120 h): > 10 µM
IC50 ([25]; 168 h): > 10 µM
IC50 ([27]; HEK293, 72 h): > 10 µM
IC50 ([27]; HEK293, 120 h): > 10 µM
IC50 ([27]; HEK293, 168 h): > 10 µM
